From patent US10987349B2, “Antitumor agent and bromodomain inhibitor” (FUJIFILM Corporation, priority 2016, dated 2021)
pIC50: −log10 of the molar value.

How the values were obtained:
BRD2 BD2 = molecular target: T1, BRD2 BD2 (Homo sapiens, UniProt P25440); assay: Binding assay, BRD2 BD2 to acetylated histone H4 Peptide-Biotin (EPIgeneous Binding Domain Kit B); settings: for inhibition at 0.3 µM: test compound at 300 nmol/L, read-out: Binding inhibition percentage BRD2 BD2
T1 construct: BRD2 BD2, BRD3 BD2 and BRD4 BD2 (Cisbio); purchased Cisbio
Method in brief: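 HTRF binding of GST-tagged BD2 (20 nmol/L working stock) to biotinylated acetyl-histone H4 peptide (250 nmol/L working stock), using streptavidin-XL665 and anti-GST Eu cryptate. Incubated 20 h at room temperature; 665/620 nm ratio versus DMSO gives % inhibition; IC50 by four-parameter fit, or % inhibition at 300 nmol/L.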

[1] = test system: human acute myeloid leukemia cell line RS4-11; assay: Cell growth test (Cell Titer Glo) RS4-11; type: cell-based; settings: RS4-11, Acute myeloid leukemia, 3 to 5 days
From the text: (§1) The human undifferentiated thymoma cell line Ty-82 (JCRB), the human acute myeloid leukemia cell lines MV4-11 (ATCC), MOLM-13 (ATCC) and RS4-11 (ATCC), the human lymphoma cell line Raji (JCRB), the human cervical epidermoid carcinoma cell line Hela (JCRB), the human lung adenocarcinoma cell line A549 (ATCC), the human colon cancer cell lines DLD1 (DS Pharma) and HCT116 (DS Pharma), and the human pancreatic cancer cell line MIAPACA-2 (ATCC) were used to carry out a cell growth test.
(§2) Ty-82, MV4-11, MOLM-13, RS4-11, Raji and DLD1 were each seeded in a well plate, in which Roswell Park Memorial Institute (RPMI)-1640 medium supplemented with penicillin/streptomycin and fetal bovine serum (FBS) with a final concentration of 10% was placed. Hela was seeded in Dulbecco's Modified Eagle's medium (DMEM) supplemented with penicillin/streptomycin and FBS with a final concentration of 10%. A549 and MIAPACA-2 were each seeded in a well plate, in which Minimum Essential Medium (MEM) supplemented with penicillin/streptomycin and FBS with a final concentration of 10% was placed. […]
(§3) Thereafter, a medium containing a test compound serially diluted with DMSO, or DMSO, was added to each well of the plate, in which the cells had been seeded, and the obtained mixture was then cultured under conditions of 37° C. and 5% CO2 for 3 to 5 days. Cell Titer Glo reaction solution (Promega) was added to the culture, and the amount of luminescence was then measured using Envision plate reader (PerkinElmer). Since the amount of luminescence is in proportion to the concentration of adenosine triphosphate (ATP) in cells, the amount of luminescence was used as an indicator of the number of living cells. The growth inhibition percentage of the test compound in each concentration was calculated according to the following equation. Growth inhibition percentage (%)=(amount of luminescence in test compound−added well)/(amount of luminescence in DMSO−added well)×100 […]

[2] = test system: human lymphoma cell line Raji; assay: Cell growth test (Cell Titer Glo) Raji; type: cell-based; settings: 3 to 5 days
From the text: as §1, §2, §3

[3] = test system: human lung adenocarcinoma cell line A549; assay: Cell growth test (Cell Titer Glo) A549; type: cell-based; settings: 3 to 5 days
From the text: as §1, §2, §3

[4] = test system: human pancreatic cancer cell line MIAPACA-2; assay: Cell growth test (Cell Titer Glo) MIAPACA-2; type: cell-based; settings: MIA PaCa-2, MIAPACA-2, Pancreatic cancer, 3 to 5 days
From the text: as §1, §2, §3

c-Myc protein = assay: Expression of c-Myc protein in Ty-82 cells, Western blotting; type: cell-based, human; settings: 100 nmol/L, 24 hours
Protocol: It has been known that the antitumor action of a bromodomain inhibitor is associated with a c-Myc protein. Please refer to, for example, Non-Patent Document 3: Delmore J E et al., Cell, Vol. 146, pp. 904 to 917, 2011. With reference to the method described in Non-Patent Document 3, the ability of the compound of the present example to inhibit the expression of a c-Myc protein in cancer cells was evaluated according to Western blotting.
The human undifferentiated thymoma cell line Ty-82 (JCRB) used in the evaluation was seeded in a 6-well plate, in which an RPMI-1640 medium supplemented with penicillin/streptomycin and FBS with a final concentration of 10% was placed. A medium containing a test compound serially diluted with dimethyl sulfoxide (DMSO), or DMSO, was added to each well of the 6-well plate in which the cells had been seeded, and the obtained mixture was then cultured under conditions of 37° C. and 5% CO2 for 24 hours. Thereafter, the cells were recovered, and were then washed with PBS. After that, Lysis Buffer (10-fold diluted Cell Lysis Buffer (10×) (CST Japan), to which Halt Protease and Phosphatase Inhibitor Cocktail (Thermofisher Scientific) were added) was added to the resulting cells. The above-described cell suspension was subjected to an ultrasonic treatment to disintegrate the cells, and was then centrifuged to recover a supernatant. Sample buffer was added thereto, and the obtained mixture was then heated at 95° C. for 5 minutes.
A sample prepared from the above-described supernatant was loaded at a protein mass of 10 μg/lane on XV PANTERA GEL 7.5%-15% (D.R.C), and was then subjected to electrophoresis. The electrophoresed protein was transcribed on a transcription membrane, and was then inoculated with Anti-Myc antibody (CST, Catalog No. 9402) and then with IRDye® 680LT Donkey anti-Rabbit IgG (H+L) (LI-COR). Using Odessey (LI-COR), the fluorescence intensity at an excitation wavelength of 700 nm was measured, and the expression level of the c-Myc protein was then quantified.

T1 sequence (P25440 344-453 limits assumed): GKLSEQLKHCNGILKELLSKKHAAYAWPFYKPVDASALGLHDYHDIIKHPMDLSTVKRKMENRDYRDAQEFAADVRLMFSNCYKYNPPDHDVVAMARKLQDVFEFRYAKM

Row | SMILES | pIC50 (BRD2 BD2) | inhibition at 0.3 µM (BRD2 BD2) | GI50 [1] | GI50 [2] | GI50 [3] | GI50 [4] | expression level of c-Myc protein (c-Myc protein)
1 | CCn1c(=O)cc(C2CCN(C)CC2)c2cc(C(=O)N(C)c3ccc4c(c3)CCC4)ccc21 [Example 17, N-(2,3-dihydro-1H-inden-5-yl)-1-ethyl-N-methyl-4-(1-methylpiperidin-4-yl)-2-oxo-1,2-dihydroquinoline-6-carboxamide] | 7.48 | 85% | 30 nM | 23 nM | 292 nM | 307 nM | significantly reduced
2 | CCn1c(=O)cc(N2CCOCC2)c2cc(-n3c(-c4ccc(Cl)cc4)c[nH]c3=O)ccc21 [Example 245, 6-(5-(4-chlorophenyl)-2-oxo-2,3-dihydro-1H-imidazol-1-yl)-1-ethyl-4-(morpholin-4-yl)quinolin-2(1H)-one] | 8.15 | 89% | 85 nM | 97 nM | 1740 nM | 760 nM | significantly reduced
3 | CCn1c(=O)cc(C2CCN(C)CC2)c2cc(C(=O)N(C)c3ccc(C)cc3)ccc21 [Example 14, 1-Ethyl-N-methyl-N-(4-methylphenyl)-4-(1-methylpiperidin-4-yl)-2-oxo-1,2-dihydroquinoline-6-carboxamide] | 7.03 | 74% | 66 nM | 60 nM | 665 nM | 1420 nM | significantly reduced
